Reference: patent publication US12409187B2, “PH regulating hydrogels that neutralize cancer cell environment acidosis and increase chemotherapy efficacy” (Brown University, priority 2021, dated 2025)

Columns and labels:
Type in all cases: cell-based, human
[1] = test system: MDA-MB-231 breast cancer cells; experiment: pH-dependent doxorubicin efficacy on cell proliferation; details: 0.25 μM doxorubicin, 5-day treatment
[2] = test system: MDA-MB-231 breast cancer cell line; experiment: Cell proliferation assay (image confluency, manual cell count); details: 1 μM doxorubicin
Experimental: Cell viability. Incubated MDA-MB-231 cells were passaged from a confluent T-flask into a 12-well culture plate, and the treatment hydrogels were added. For the viability study, the effect of modified PEG hydrogels bicarbonate concentrations of 200, 400, 600, and 800 mM was analyzed along with the control group with no treatment (bicarbonate), and a vehicle control of PEG with no bicarbonate. The cells were imaged every twenty-four hours under Nikon TS 100 inverted light microscope attached with Excelis HD camera and processed using an ImageJ image processing macro (performed by Gavin Mays) to estimate cell confluency from the imaged area coverage. At the end of day 5, the number of live and dead cells were estimated by Trypan staining and cell counting using a hemocytometer. Percentage viability was calculated from the number of live cells as a fraction of total cells.
Cell proliferation assay. MDA-MB-231 breast cancer cell line. Cells given pH, hydrogel, sodium bicarbonate, and doxorubicin treatment. At twenty-four hours, cell confluency is observed and recorded via image processing. At Day 6, cell counting was performed using a hemocytometer. All assays increased in confluency. […] Assays without hydrogels consistent with confluency analysis. Assays with any hydrogel have low manual cell counts.

MDA-MB-231 cells = experiment: MTT assay (metabolic activity), Example 2; details: 1 μM doxorubicin
Experimental: MTT assay. Measures metabolic activity. Cells reduce membrane permeable salt MTT (yellow) to formazan crystals (purple). Incubate for three days with treatment. Incubate for four hours with MTT. Add solubilization solution. Incubate for twelve hours. Measure absorbance of every well at OD570 nm-OD650 nm. See Riss et al., The Assay Guidance Manual (Eli Lilly & Company and the National Center for Advancing Translational Sciences. Bethesda, MD, USA, 2016). Hydrogels added to 7.4 pH with no drug had decreased metabolic activity. Hydrogels added to 6.5 pH with drug had decreased metabolic activity. Base-releasing hydrogel reduced cell proliferation, migration, and metabolic activity at an alkaline pH. Base-releasing hydrogel improved doxorubicin efficacy against cell proliferation, migration, and metabolic activity at an alkaline pH. Neutral-pH-adapted cells prefer neutral pH.
The metabolism of cancer cells can be measured by the activity of the mitochondrial reductase enzyme. […] The metabolic activity of the cells in culture can be measured by this conversion of MTT to formazan crystals. The absorbance can then be recorded at OD570 nm and OD650 nm to quantify the formazan produced by the cells through the mitochondrial reductase conversion from MTT. […] The absorbance is measured spectrophotometrically via a plate reader.

In the case of `COc1cccc2c1C(=O)c1c(O)c3c(c(O)c1C2=O)C[C@@](O)(C(=O)CO)C[C@@H]3O[C@H]1C[C@H](N)[C@H](O)[C@H](C)O1` [doxorubicin], the “efficacy at preventing cell proliferation” value ([1]; pH 6.5) was 40%, the “effectiveness at preventing cell proliferation” value ([1]; pH 7.4) was “approximately 95%” and the “change of cell proliferation over the six-day trial period” value [2] was “decrease”. For the same compound, the “metabolic activity versus assays without doxorubicin” value (MDA-MB-231 cells) was “statistically significantly less metabolic activity”.
